Measured values published in US20120270237A9, “METHODS FOR THE IDENTIFICATION OF KINASE INTERACTING MOLECULES AND FOR THE PURIFICATION OF KINASE PROTEINS” (Cellzone AG, priority 2009, published 2012).

Experiments:
IKKe [1] = target: T1, IKKe (Homo sapiens, UniProt Q14164); assay: Kinobeads competition binding, L-363 cell lysate; design: endogenous in cells; host or cells: L-363 (treated with MG132 before harvest); settings: 10 μM free compound, L-363 lysate
T1 sequence (Q14164 1-716): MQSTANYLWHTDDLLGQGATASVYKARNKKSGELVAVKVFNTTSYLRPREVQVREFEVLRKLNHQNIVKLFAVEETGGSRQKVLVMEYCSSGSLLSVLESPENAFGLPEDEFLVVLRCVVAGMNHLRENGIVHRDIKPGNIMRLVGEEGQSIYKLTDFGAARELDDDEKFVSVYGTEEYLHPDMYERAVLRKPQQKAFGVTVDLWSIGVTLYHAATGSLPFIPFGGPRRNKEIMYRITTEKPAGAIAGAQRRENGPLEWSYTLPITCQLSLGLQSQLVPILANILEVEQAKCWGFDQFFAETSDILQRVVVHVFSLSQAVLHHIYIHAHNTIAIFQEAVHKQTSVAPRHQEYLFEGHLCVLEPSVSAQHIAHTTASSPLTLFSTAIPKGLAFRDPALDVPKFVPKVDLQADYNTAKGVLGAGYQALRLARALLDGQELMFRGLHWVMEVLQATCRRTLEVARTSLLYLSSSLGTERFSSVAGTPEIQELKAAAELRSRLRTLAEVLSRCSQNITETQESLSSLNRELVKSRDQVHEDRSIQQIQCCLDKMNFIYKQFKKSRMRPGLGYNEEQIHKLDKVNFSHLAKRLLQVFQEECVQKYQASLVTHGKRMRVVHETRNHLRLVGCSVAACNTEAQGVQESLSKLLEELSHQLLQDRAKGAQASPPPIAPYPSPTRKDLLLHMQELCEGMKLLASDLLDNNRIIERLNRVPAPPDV
Procedure: To one aliquot of cell lysate 10 μM of the free compound (FIG. 3, CZC31326) was added and allowed to bind to proteins in the lysate. Then the affinity matrix with the immobilized compound was added to capture proteins that were not interacting with the previously added free compound. Beads were separated from the lysate and bead bound proteins were eluted in SDS sample buffer and subsequently separated by SDS-Polyacrylamide gel electrophoresis (FIG. 8). Suitable gel bands were cut out and subjected to in-gel proteolytic digestion with trypsin. The second lysate aliquot was processed identically, however no free compound was added (DMSO solvent control). Peptides originating from samples 1 and 2 were labeled with iTRAQ reagents (iTRAQ 114 and iTRAQ 117) and the combined samples were analyzed with a nano-flow liquid chromatography system coupled online to a tandem mass spectrometer (LC-MS/MS) experiment followed by iTRAQ reporter ion quantification in the MS/MS spectra as described in Example 2.
For this experiment the human plasma cell leukaemia line L-363 was used (German Collection of Microorganisms and Cell Cultures, DSMZ number ACC49, Braunschweig, Germany). Cells were treated for three hours with 20 μM of the proteasome inhibitor MG132 (Z-Leu-Leu-Leu-al, Sigma C2211) prior to cell harvesting.

PKN2 = PKN2 (Homo sapiens, UniProt Q16513); assay: Kinobeads competition binding, HL60 cell lysate; design: endogenous in cells; settings: 10 μM free compound
Procedure: (§1) To one aliquot of cell lysate 10 μM of the free compound (FIG. 3, CZC31326) was added and allowed to bind to proteins in the lysate. Then the affinity matrix with the immobilized compound (Example 1) was added to capture proteins that were not interacting with the previously added free compound. Beads were separated from the lysate and bead bound proteins were eluted in SDS sample buffer and subsequently separated by SDS-Polyacrylamide gel electrophoresis (FIG. 4). Suitable gel bands were cut out and subjected to in-gel proteolytic digestion with trypsin. The second lysate aliquot was processed identically, however no free compound was added (DMSO solvent control). Peptides originating from samples 1 and 2 were labeled with iTRAQ reagents (iTRAQ 114 and iTRAQ 117) and the combined samples were analyzed with a nano-flow liquid chromatography system coupled online to a tandem mass spectrometer (LC-MS/MS) experiment followed by iTRAQ reporter ion quantification in the MS/MS spectra (Ross et al., 2004. Mol. Cell. Proteomics 3(12):1154-1169). Further experimental protocols can be found in WO2006/134056 and a previous publication (Bantscheff et al., 2007. Nature Biotechnology 25, 1035-1044). Sepharose-beads with the immobilized compound (100 μl beads per pull-down experiment) were equilibrated in lysis buffer and incubated with a cell lysate sample containing 50 mg of protein on an end-over-end shaker (Roto Shake Genie, Scientific Industries Inc.) for 2 hours at 4° C. Beads were collected, transferred to Mobicol-columns (MoBiTech 10055) and washed with 10 ml lysis buffer containing 0.4% NP40 detergent, followed by 5 ml lysis buffer containing 0.2% detergent. To elute bound proteins, 60 μl 2×SDS sample buffer was added to the column. The column was incubated for 30 minutes at 50° C. and the eluate was transferred to a siliconized microfuge tube by centrifugation. Proteins were then alkylated with 108 mM iodoacetamid. Proteins were then separated by SDS-Polyacrylamide electrophoresis (SDS-PAGE). The peptide extracts of samples treated with 10 μM of free compound (CZC31326) and the solvent control (0.5% DMSO) were treated with different variants of the isobaric tagging reagent (iTRAQ Reagents Multiplex Kit, part number 4352135, Applied Biosystems, Foster City, Calif., USA). The iTRAQ reagents are a set of multiplexed, amine-specific, stable isotope reagents that can label peptides on amino groups in up to four different biological samples enabling simultaneous identification and quantitation of peptides. The iTRAQ reagents were used according to instructions provided by the manufacturer. The samples were resuspended in 10 μl 50 mM TEAB solution, pH 8.5 and 10 μl ethanol were added. The iTRAQ reagent was dissolved in 120 μl ethanol and 10 μl of reagent solution were added to the sample. The labeling reaction was performed at room temperature for one hour on a horizontal shaker and stopped by adding 5 μl of 100 mM TEAB and 100 mM glycine in water. The two labeled sampled were then combined, dried in a vacuum centrifuge and resuspended in 10 μl of 0.1% formic acid in water. Relative protein quantitation was performed using peak areas of iTRAQ reporter ion signals essentially as described in an earlier publication (Bantscheff et al., 2007. Nature Biotechnology 25, 1035-1044).

CDK2 = CDK2 (Homo sapiens, UniProt P24941); assay: Kinobeads competition binding, HL60 cell lysate; design: endogenous in cells; settings: 10 μM free compound
Procedure: as §1

RSK2 = RSK2 (Homo sapiens, UniProt P51812); assay: Kinobeads competition binding, HL60 cell lysate; design: endogenous in cells; settings: 10 μM free compound
Procedure: as §1

JAK2 = JAK2 (Homo sapiens, UniProt O60674); assay: Kinobeads competition binding, HL60 cell lysate; design: endogenous in cells; settings: 10 μM free compound
Procedure: as §1

MAP3K1 = MAP3K1 (Homo sapiens, UniProt Q13233); assay: Kinobeads competition binding, HL60 cell lysate; design: endogenous in cells; settings: 10 μM free compound
Procedure: as §1

IKKe [2] = target: T1, IKKe; assay: Kinobeads competition binding, HL60 cell lysate; design: endogenous in cells; settings: 10 μM free compound
Procedure: as §1

JAK2, sequence (O60674 whole entry): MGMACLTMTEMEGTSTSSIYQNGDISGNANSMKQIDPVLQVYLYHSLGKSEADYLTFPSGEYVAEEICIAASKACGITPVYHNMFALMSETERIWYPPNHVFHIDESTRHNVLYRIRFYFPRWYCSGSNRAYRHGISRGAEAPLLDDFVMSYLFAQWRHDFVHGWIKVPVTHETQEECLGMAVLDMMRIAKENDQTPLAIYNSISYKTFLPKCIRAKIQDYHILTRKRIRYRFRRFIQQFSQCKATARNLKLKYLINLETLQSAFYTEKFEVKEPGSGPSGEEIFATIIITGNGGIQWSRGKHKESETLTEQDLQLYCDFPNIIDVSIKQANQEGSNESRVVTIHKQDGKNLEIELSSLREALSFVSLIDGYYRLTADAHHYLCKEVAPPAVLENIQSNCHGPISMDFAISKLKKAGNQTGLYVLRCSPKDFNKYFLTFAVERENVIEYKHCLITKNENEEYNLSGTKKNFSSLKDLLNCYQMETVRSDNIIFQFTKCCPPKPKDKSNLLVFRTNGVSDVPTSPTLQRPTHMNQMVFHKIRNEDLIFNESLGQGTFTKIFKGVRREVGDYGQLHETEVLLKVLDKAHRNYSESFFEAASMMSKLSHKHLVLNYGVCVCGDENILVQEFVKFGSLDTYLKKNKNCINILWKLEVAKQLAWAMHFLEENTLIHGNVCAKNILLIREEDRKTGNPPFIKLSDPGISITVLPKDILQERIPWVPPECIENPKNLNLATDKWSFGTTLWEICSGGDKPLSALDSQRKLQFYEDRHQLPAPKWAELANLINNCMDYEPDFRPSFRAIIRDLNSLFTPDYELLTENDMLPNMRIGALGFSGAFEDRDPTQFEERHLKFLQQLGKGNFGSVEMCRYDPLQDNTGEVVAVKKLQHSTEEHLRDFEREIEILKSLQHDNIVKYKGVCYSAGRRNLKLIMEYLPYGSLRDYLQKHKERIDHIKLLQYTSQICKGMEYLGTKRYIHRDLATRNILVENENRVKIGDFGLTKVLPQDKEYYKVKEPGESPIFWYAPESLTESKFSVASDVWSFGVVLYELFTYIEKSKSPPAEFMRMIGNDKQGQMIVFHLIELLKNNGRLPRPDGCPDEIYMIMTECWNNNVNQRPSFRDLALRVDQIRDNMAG
RSK2, sequence (P51812 whole entry): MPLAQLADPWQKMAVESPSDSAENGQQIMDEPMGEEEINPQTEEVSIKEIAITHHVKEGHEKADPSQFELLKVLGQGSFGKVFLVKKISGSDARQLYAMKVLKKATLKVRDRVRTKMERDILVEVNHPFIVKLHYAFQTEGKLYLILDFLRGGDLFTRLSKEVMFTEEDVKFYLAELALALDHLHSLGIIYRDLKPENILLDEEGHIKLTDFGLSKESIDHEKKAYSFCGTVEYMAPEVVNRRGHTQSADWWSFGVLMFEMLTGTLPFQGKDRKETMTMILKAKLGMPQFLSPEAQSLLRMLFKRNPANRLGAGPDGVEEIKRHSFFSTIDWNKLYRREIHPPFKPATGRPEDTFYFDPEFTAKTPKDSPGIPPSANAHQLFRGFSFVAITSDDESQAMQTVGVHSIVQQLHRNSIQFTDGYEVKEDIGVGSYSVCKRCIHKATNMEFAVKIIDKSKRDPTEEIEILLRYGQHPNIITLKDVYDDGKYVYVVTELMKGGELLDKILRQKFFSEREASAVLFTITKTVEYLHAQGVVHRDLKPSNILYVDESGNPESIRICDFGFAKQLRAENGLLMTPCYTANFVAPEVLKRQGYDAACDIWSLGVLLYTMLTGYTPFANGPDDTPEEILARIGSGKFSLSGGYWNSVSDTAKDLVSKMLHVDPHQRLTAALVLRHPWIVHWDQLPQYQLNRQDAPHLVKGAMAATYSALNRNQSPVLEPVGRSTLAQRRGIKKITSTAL
MAP3K1, sequence (Q13233 whole entry): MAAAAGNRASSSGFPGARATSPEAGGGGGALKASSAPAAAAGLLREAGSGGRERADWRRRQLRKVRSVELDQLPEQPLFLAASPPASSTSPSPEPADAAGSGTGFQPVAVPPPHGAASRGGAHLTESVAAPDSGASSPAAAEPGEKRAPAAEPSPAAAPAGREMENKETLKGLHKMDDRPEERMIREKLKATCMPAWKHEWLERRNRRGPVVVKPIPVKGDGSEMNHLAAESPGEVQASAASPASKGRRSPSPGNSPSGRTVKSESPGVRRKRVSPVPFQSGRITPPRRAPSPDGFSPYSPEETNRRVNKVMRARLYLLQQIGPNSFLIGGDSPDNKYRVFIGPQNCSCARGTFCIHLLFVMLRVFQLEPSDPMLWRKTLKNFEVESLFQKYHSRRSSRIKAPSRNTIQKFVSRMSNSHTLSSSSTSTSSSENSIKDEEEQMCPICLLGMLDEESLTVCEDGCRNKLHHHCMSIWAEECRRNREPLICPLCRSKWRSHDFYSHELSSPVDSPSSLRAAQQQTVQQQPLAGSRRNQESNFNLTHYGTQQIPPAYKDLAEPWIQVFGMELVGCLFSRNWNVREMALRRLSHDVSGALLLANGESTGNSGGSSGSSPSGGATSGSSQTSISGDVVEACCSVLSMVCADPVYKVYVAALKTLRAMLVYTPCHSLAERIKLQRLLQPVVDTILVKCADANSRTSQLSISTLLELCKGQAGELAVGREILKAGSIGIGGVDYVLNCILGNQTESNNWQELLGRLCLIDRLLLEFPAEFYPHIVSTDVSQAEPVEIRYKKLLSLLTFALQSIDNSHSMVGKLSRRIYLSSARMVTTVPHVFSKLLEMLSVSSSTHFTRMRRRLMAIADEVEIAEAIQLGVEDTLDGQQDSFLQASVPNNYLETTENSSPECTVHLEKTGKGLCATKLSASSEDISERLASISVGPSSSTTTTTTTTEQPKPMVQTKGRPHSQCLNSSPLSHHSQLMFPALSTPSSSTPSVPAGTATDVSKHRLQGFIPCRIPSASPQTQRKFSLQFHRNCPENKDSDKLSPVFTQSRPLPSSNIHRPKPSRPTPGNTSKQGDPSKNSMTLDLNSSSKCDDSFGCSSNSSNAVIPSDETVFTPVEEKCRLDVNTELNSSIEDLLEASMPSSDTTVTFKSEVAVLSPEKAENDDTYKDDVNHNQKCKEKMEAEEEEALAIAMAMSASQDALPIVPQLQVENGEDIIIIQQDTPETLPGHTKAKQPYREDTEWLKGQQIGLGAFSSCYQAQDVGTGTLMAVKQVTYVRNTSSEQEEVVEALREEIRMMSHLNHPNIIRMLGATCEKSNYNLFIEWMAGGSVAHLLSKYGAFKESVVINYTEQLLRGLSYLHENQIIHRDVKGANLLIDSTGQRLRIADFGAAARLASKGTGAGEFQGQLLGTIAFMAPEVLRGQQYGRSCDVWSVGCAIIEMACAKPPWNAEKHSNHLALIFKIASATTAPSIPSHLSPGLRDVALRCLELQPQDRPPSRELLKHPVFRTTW
PKN2, sequence (Q16513 whole entry): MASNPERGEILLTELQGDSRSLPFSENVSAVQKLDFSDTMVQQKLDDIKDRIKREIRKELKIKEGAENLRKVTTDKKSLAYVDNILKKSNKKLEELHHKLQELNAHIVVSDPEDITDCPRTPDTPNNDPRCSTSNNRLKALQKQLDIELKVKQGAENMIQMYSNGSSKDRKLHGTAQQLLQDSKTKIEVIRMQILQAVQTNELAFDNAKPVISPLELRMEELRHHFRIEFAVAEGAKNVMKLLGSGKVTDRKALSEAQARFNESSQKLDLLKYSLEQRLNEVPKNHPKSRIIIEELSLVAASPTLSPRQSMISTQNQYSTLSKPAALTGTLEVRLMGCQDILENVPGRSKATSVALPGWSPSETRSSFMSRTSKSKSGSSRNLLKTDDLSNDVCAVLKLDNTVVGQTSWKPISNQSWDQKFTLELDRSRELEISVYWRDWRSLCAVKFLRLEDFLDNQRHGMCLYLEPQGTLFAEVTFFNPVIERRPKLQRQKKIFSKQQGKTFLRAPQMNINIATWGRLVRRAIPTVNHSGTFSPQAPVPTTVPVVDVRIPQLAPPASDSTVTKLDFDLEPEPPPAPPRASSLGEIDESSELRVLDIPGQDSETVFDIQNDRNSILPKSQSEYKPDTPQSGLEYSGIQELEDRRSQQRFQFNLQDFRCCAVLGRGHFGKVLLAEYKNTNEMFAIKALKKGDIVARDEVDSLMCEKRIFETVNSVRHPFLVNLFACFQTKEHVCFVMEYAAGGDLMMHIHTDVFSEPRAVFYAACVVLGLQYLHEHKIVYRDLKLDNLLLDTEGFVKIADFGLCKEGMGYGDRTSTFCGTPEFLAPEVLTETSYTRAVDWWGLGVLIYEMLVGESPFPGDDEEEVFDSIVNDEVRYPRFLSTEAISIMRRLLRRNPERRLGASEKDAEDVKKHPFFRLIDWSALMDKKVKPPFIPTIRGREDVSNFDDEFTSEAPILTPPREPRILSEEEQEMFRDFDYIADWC

**Q.** How did the inhibition at 10 µM (IKKe [1]) turn out when `CS(=O)(=O)Nc1ccccc1Nc1nc(Nc2cccc(OCCN)c2)ncc1Cl` [CZC31326, N-(2-(2-(3-(2-aminoethoxy)phenylamino)-5-chloropyrimidin-4-ylamino)phenyl)methanesulfonamide] was run?
**A.** 89.4%

**Q.** And the inhibition at 10 µM (PKN2)?
**A.** 93.9%

**Q.** What about the Competition % (CDK2) of the same compound?
**A.** 95.1%

**Q.** And the inhibition at 10 µM (RSK2)?
**A.** 96.7%

**Q.** And the Competition % (JAK2)?
**A.** 96.8%

**Q.** What about the inhibition at 10 µM (MAP3K1) of the same compound?
**A.** 87%

**Q.** And the inhibition at 10 µM (IKKe [2])?
**A.** 91.4%
